Patent publication US9987315B2 (priority 2005, dated 2018)

Assays:
[1] = tested on: BGMK; assay type: cell-based, primate
[2] = tested on: RK-13; assay type: cell-based, rabbit
[3] = tested on: RL5; assay type: cell-based, rabbit

Measured: effect of rapamycin on replication of myxoma virus (virus titre by foci formation on BGMK cells)

CO[C@H]1C[C@@H]2CC[C@@H](C)[C@@](O)(O2)C(=O)C(=O)N2CCCC[C@H]2C(=O)O[C@H]([C@H](C)C[C@@H]2CC[C@@H](O)[C@H](OC)C2)CC(=O)[C@H](C)/C=C(\C)[C@@H](O)[C@@H](OC)C(=O)[C@H](C)C[C@H](C)/C=C/C=C/C=C/1C [rapamycin]
no effect: [1] | [2] | [3]
